In patent publication US8497075B2, “Methods of identifying a modulator that inhibits the binding between Epstein-Barr virus induced receptor 2 and cholesterol derived ligands” (Novartis AG, priority 2008, dated 2013):

Assays:
Assay in all cases: nuclear hormone receptor reporter gene assay
Type in all cases: cell-based
Conditions in all cases: concentrations up to 10 μM
PPARg (NR1C3) = molecular target: T1, PPARg (NR1C3) (Homo sapiens, UniProt P37231)
T1 sequence (P37231 1-505): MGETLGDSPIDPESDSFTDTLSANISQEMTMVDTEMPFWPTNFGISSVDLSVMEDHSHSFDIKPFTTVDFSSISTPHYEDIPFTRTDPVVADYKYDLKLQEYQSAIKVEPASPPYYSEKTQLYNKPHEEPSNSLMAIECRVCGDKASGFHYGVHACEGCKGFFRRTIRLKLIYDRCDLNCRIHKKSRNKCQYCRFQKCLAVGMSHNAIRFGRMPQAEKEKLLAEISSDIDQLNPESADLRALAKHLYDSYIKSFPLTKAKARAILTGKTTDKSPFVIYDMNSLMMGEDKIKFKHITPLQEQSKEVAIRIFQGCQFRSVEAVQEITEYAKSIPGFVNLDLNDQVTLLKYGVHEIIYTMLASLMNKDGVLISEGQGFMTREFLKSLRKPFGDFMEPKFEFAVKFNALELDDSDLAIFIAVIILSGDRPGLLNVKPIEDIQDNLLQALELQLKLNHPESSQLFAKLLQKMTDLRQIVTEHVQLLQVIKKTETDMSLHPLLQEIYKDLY
Excerpt: (§1) So far oxysterols have been noted to have various physiological activities namely regulate the expression of genes that participate in both sterol and fat metabolism, serve as substrates for the synthesis of bile acids, and are intermediates in the transfer of sterols from the periphery to the liver (Russell, D. W. (2000). Oxysterol biosynthetic enzymes. Biochim. Biophys. Acta 1529, 126-135). […] This included binding assays for 26 different GPCRs, functional assays of 9 different GPCRs, 40 kinase assays, as well as selected ion channels, proteases, transporter and enzyme assays.

FXRa (NR1H4) = molecular target: T2, FXRa (NR1H4) (Homo sapiens, UniProt Q96RI1)
T2 sequence (Q96RI1 1-486): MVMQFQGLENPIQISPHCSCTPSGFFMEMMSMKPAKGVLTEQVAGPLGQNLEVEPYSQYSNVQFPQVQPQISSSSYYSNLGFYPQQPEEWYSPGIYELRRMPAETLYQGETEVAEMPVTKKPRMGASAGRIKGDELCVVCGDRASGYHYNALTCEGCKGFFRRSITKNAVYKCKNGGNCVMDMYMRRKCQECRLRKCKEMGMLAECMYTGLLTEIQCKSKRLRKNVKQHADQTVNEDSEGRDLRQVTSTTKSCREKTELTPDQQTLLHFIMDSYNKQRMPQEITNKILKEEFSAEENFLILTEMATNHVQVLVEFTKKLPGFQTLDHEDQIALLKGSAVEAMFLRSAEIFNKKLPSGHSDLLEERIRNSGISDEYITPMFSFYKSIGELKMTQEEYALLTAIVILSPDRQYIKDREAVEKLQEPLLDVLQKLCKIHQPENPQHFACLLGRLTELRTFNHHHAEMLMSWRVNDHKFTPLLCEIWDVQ
Excerpt: as §1

RXRa (NR2B1) = molecular target: T3, RXRa (NR2B1) (Homo sapiens, UniProt P19793)
T3 sequence (P19793 1-462): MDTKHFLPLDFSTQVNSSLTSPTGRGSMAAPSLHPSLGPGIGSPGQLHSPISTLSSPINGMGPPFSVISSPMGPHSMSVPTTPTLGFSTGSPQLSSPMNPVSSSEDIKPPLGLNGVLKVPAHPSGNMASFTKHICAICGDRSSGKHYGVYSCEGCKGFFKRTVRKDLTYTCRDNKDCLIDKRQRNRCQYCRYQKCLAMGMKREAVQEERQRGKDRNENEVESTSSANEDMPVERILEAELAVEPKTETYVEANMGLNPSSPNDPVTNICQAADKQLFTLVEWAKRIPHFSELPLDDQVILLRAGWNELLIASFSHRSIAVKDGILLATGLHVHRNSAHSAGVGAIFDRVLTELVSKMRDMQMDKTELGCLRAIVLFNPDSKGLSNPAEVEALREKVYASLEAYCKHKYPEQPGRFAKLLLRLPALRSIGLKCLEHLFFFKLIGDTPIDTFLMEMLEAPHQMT
Excerpt: as §1

SXR (NR112) = molecular target: T4, SXR (NR112) (Homo sapiens, UniProt O75469)
T4 sequence (O75469 1-434): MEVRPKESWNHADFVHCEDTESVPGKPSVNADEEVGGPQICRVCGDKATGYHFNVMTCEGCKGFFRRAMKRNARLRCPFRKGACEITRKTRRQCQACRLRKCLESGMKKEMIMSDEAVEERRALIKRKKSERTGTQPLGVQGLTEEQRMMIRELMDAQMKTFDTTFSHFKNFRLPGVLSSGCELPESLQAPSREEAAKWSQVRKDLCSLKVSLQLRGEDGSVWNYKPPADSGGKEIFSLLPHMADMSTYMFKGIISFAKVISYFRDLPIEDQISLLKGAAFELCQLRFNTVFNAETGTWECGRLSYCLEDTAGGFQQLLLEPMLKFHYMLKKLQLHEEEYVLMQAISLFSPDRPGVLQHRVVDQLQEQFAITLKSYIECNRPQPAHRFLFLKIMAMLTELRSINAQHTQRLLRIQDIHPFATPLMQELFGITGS
Excerpt: as §1

GR (NR3C1) = molecular target: T5, GR (NR3C1) (Homo sapiens, UniProt P04150)
T5 sequence (P04150 1-777): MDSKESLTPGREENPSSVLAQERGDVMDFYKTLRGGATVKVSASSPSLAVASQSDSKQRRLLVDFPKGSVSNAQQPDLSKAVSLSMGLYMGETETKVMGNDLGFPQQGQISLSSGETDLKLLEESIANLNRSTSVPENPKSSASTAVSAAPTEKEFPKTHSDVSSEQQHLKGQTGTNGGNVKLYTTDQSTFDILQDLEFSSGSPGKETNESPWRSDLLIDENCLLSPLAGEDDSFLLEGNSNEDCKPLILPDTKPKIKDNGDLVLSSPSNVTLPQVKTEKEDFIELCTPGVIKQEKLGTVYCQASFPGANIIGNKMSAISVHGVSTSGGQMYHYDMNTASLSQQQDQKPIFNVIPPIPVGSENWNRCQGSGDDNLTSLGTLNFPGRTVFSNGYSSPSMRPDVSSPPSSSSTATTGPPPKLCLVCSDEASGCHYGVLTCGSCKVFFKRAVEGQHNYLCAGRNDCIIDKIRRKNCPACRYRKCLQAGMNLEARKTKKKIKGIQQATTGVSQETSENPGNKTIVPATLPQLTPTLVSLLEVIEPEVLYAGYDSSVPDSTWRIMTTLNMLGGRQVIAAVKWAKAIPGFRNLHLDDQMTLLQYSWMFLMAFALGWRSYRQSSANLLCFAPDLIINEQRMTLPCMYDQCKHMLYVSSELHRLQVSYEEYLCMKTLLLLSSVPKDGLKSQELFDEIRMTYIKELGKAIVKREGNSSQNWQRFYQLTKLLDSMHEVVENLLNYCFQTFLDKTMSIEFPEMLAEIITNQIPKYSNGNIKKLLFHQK
Excerpt: as §1

C[C@H](CCCC(C)(C)O)[C@H]1CC[C@H]2[C@@H]3[C@H](O)C=C4C[C@@H](O)CC[C@]4(C)[C@H]3CC[C@]12C [7a,25DHC, cholest-5-ene-3b,7a,25-triol]
did not activate: activation of PPARg (PPARg (NR1C3)) | activation of FXRa (FXRa (NR1H4)) | activation of RXRa (RXRa (NR2B1)) | activation of SXR (SXR (NR112)) | activation of GR (GR (NR3C1))

CC(CO)CCC[C@@H](C)[C@H]1CC[C@H]2[C@@H]3[C@H](O)C=C4C[C@@H](O)CC[C@]4(C)[C@H]3CC[C@]12C (stereo partly shown) [7a,27DHC, cholest-5-ene-3b,7a,27-triol]
did not activate: activation of PPARg (PPARg (NR1C3)) | activation of FXRa (FXRa (NR1H4)) | activation of RXRa (RXRa (NR2B1)) | activation of SXR (SXR (NR112)) | activation of GR (GR (NR3C1))
